Key:
[1] = test system: standard strain of Escherichia coli; assay: bactericidal ability test, development of bacteria after contact and overnight culture; format: cell-based; details: ozone-oxidized glycerin of about 10 unit/g, cultured overnight at 37° C., FIG. 1
[2] = test system: standard strain of Pseudomonas aeruginosa; assay: as above; format: cell-based; details: ozone-oxidized glycerin of about 10 unit/g, cultured overnight at 37° C., FIG. 1
[3] = test system: standard strain of Staphylococcus aureus; assay: as above; format: cell-based; details: ozone-oxidized glycerin of about 10 unit/g, cultured overnight at 37° C., FIG. 1
[4] = test system: clinical isolated strain of Salmonella; details: ozone-oxidized glycerin of about 10 unit/g, cultured overnight at 37° C., FIG. 1
catalase = target: T1, catalase (Homo sapiens, UniProt P04040); assay: catalase test, oxidation ability in time sequence by potassium iodide titration; format: physicochemical; details: catalase final concentration 0.003%
T1 sequence (P04040 1-527): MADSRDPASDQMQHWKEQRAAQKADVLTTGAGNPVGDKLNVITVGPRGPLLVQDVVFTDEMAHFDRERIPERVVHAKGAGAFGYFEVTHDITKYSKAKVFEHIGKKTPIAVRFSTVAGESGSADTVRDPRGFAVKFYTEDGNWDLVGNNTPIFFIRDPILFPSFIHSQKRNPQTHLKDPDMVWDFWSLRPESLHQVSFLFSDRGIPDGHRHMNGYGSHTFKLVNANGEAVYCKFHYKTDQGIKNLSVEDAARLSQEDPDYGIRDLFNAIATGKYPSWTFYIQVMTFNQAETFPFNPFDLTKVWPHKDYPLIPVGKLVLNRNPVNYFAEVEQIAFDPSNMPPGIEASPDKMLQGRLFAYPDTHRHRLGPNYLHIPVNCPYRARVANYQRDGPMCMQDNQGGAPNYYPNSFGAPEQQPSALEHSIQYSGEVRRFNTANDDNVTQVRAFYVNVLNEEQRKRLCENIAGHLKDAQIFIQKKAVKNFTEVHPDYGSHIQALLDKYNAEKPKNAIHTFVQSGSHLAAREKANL

time until the oxidation ability almost disappeared (catalase; 0.03% hydrogen peroxide solution, FIG. 8 left) [min]	attenuation of the oxidation ability due to catalase (catalase; FIG. 8)	Structure (SMILES)	bactericidal effects [1]	bactericidal effects [2]	bactericidal effects [3]	bactericidal effects [4]
		OCC(O)CO [glycerin]	not recognized	not recognized	not recognized	not recognized
5	rapidly attenuated	OO [hydrogen peroxide]				

— US6781020B2, “Water soluble bactericide and producing method thereof” (VMC Co., Ltd., priority 2001, dated 2004)
